Test results from patent US12350350B2, “Hyperpolarisation in aqueous media via sabre” (UNIVERSITY OF YORK, priority 2017, dated 2025).

Columns and labels:
[1] = Solubility in water and organic solvent (stated); conditions: for solubility in organic solvent: CD3Cl or CD2Cl2
[2] = UV monitoring of pz transfer from aqueous phase into chloroform, with and without NaCl; assay type: physicochemical; conditions: H2O layered over equivalent volume of CHCl3
Procedure: Relative rates of pz transfer from the aqueous phase into chloroform were assessed, with, and without NaCl, by UV monitoring as detailed in Figure S100. This involved layering a sample of H2O containing pyrazine over an equivalent volume of CHCl3 that contained no pz.

[3] = UV-vis quality control: catalyst in the aqueous phase after phase separation; assay type: physicochemical; conditions: UV spectrum 10 seconds after mixing, no signal seen
Procedure: A UV spectrum was recorded to monitor the amount of catalyst present in the aqueous phase 10 seconds after mixing. As detailed in Figure S98 no signal is seen which places an upper limit of 1.5×10^−6 mol dm^−3 on the iridium concentration based on [Ir(H)2(IMes)(pz)3]Cl. The sample used mimicked that of 5.1.

Compound | solubility in organic solvent [1] | solubility in water / D2O [1] | also measured
Fc1cccnc1 [3-fluoropyridine] | highly soluble in organic solvent |  | 
Nc1ccncc1 [4-aminopyridine] |  | fully water soluble | 
[2H]c1cc([2H])c(C(=O)OC)cn1 [d2-methylnicotinate] | fully soluble in CD3Cl phase | partially soluble in D2O phase | 
[2H]c1cc([2H])c(C(N)=O)cn1 [d2-nicotinamide] | partially soluble in organic solvent | full water soluble | 
c1cnccn1 [pyrazine] |  |  | rate of transfer between the phases, effect of NaCl [2]: increase the rate of pz transfer between the phases; relative partitioning between aqueous phase and chloroform, effect of NaCl [2]: unaffected by added NaCl
[Ir(H)2(IMes)(pz)3]Cl |  |  | upper limit on iridium concentration in the aqueous phase [3]: ≤ 1.5×10^−6 mol dm^−3
